Experimental data taken from patent US20030082722A1, “Method for amplifying expression from a cell specific promoter” (priority 2001, published 2003).
Read-outs that look alike come from different tables or passages of the source.

B1: TRAIL protein: recombinant soluble TRAIL protein (R & D Systems) (protein, UniProt P50591 39-281, looked up)
extracellular domain: TNELKQMQDKYSKSGIACFLKEDDSYWDPNDEESMNSPCWQVKWQLRQLVRKMILRTSEETISTVQEKQQNISPLVRERGPQRVAAHITGTRGRSNTLSSPNSKNEKALGRKINSWESSRSGHSFLSNLHLRNGELVIHEKGFYYIYSQTYFRFQEEIKENTKNDKQMVQYIYKYTSYPDPILLMKSARNSCWSKDAEYGLYSIYQGGIFELKENDRIFVSVTNEHLIDMDHEASFFGAFLVG
modifications: extracellular domain recombinant soluble

How the values were obtained:
[1] = system: lung metastasis derived from breast cancer cells 231/ADR; assay: Lung metastatic tumor model, aerosolized Ad/gTRAIL with paclitaxol; type: in vivo, nude mice; conditions: day 35 after starting treatment
Protocol: The aerosol vector administration are the following: adenovirus of 1×10^12 particles was diluted in PBS to a final volume of Iml and was mixed with 500 μl (5 mg) of protamine. […] The complex was placed into the nebulizer chamber. The aerosol from the nebulizer was passed through a sealed plastic cage that housed the mice. The exposure required approximately 50 minutes, during which time the mice were allowed to move freely about the cage.

[2] = system: 231/ADR; assay: IC50 of chemotherapeutic agents and Ad/gTRAIL, doxorubicin-resistant cells; type: cell-based, human; conditions: for IC50: Homo sapiens
Protocol: Cell Lines and Reagents. […] Immortalized nontransformed breast epithelial cell lines MCF10A and MCF10F and normal human mammary epithelial cells (NHMEC) were purchased from Clonetics (San Diego, Calif.). […] Doxorubicin-resistant MDA-MB-231 cells were obtained through the stepwise exposure of the parental cells to doxorubicin. […] The residual surviving cells were then allowed to grow in fresh medium. When these residual cells reached 70-80% confluence in the plate, they were treated again with the same concentration of doxorubicin. After this cycle was repeated several times, the concentration of doxorubicin was increased multiple times followed by the regrowth of cells.
Assays. Cell viability, flow cytometry, and Western blot analysis were performed as described in previous examples. […] For Western analysis anti-caspase-8 (R&D systems, Minneapolis, Minn.), anti-caspase-3 (BD PharMingen, San Diego, Calif.), anti-PARP (BD PharMingen), anti-GFP (Clontech Inc., Palo Alto, Calif.), and anti-hTRAIL (Alexis, San Diego, Calif.) antibodies were used.
Statistical Analysis. Differences among the treatment groups were assessed as described in previous examples. Survival was assessed using the Kaplan-Meier method.

[3] = system: MDA-MB-231; assay: IC50 of chemotherapeutic agents and Ad/gTRAIL, parental cells; type: cell-based, human
Protocol: Cell Lines and Reagents. Human breast cancer cell lines MCF7, MDA-MB-231, MDA-MB-453, and MDA-MB-468 were grown in RPMI 1640 medium supplemented with 10% heat-inactivated fetal bovine serum, and antibiotics, and glutamine. Immortalized nontransformed breast epithelial cell lines MCF10A and MCF10F and normal human mammary epithelial cells (NHMEC) were purchased from Clonetics (San Diego, Calif.). Primary normal human mammary epithelial cells (PNHMEC) isolated from normal breast tissue (Stampfer and Yaswen, 1994) were provided by Dr. Yinhua Yu (The University of Texas M. D. Anderson Cancer Center). Doxorubicin-resistant MDA-MB-231 cells were obtained through the stepwise exposure of the parental cells to doxorubicin. […] The residual surviving cells were then allowed to grow in fresh medium. When these residual cells reached 70-80% confluence in the plate, they were treated again with the same concentration of doxorubicin. After this cycle was repeated several times, the concentration of doxorubicin was increased multiple times followed by the regrowth of cells. […] Other agents used in these experiments included gemcitabine (Eli Lilly and Co., Indianapolis, Ind.), vinorelbine (Pierre Fabre, Idron 64320, France), paclitaxel (Bristol-Myers Squibb Co., Princeton, N.J.), irinotecan (Pharmacia & Upjohn Co., Kalamazoo, Mich.), floxuridine (Ben Venue Labs, Inc., Bedford, Ohio), and TRAIL protein (R & D Systems, Minneapolis, Minn.).
Assays. Cell viability, flow cytometry, and Western blot analysis were performed as described in previous examples. See also Gu et al., 2000 and Kagawa et al., 2001. Biochemical analysis, using β-galactosidase was determined as dexcribed in Example 1. For Western analysis anti-caspase-8 (R&D systems, Minneapolis, Minn.), anti-caspase-3 (BD PharMingen, San Diego, Calif.), anti-PARP (BD PharMingen), anti-GFP (Clontech Inc., Palo Alto, Calif.), and anti-hTRAIL (Alexis, San Diego, Calif.) antibodies were used. Apoptosis in tumors was assessed by in situ TUNEL staining as decribed in Example 3.
Statistical Analysis. Differences among the treatment groups were assessed as described in previous examples. Survival was assessed using the Kaplan-Meier method. The drug concentration that inhibited cells growth by 50% (IC50) was calculated by CurveExpert 1.3 software (Starkville, Miss.).

[4] = system: DLD1/TRAIL-R; assay: Sensitizing TRAIL-resistant cells to Ad/gTRAIL by chemotherapeutic agents; conditions: Ad/gTRAIL 1000 viral particles/cell; 96 h
Protocol: Chemotherapeutic agents concentrations are shown on the bottom of each graph. […] Cell viability was determined at 96 h after treatment. Levels are mean+/−SD of two quadruplet assays. […] Cells were treated with adenovector at 1000 moi (vp), 5-FU 50 μm and 1.25 μm MMC. In combination group, the dose were the same as the single agent group. Cells were harvested at 96 h after treatment and cell lysate was used for Western blot analysis.

[5] = system: H1299 lung cancer cells
Description: Construction of Ad/gBax. […] This bicistronic vector as modified combined the two expression cassettes of the Tet-Off system (BD Clontech, San Francisco, Calif., USA) into a single vector (FIG. 28). […] The second cassette contained the cDNA of the GFP/Bax fusion protein under the control of a compound promoter consisting of TRE and the minimal immediate early promoter of CMV. GFP was included to facilitate the selection of recombinant virus and the detection of expression products.

[6] = system: lung; assay: Reporter gene expression in lung after aerosolized vector; type: in vivo, mice; conditions: protamine 1 mg/ml, hydrocortisone 250 ng/ml
Protocol: The aerosol vector administration are the following: adenovirus of 1×10^12 particles was diluted in PBS to a final volume of Iml and was mixed with 500 μl (5 mg) of protamine. The Protamine-adenovirus complex was mixed with 5 ml hydrocortisone (concentration of 250 ng/ml in H2O) after incubating 10 min at room temperature. The complex was placed into the nebulizer chamber. The aerosol from the nebulizer was passed through a sealed plastic cage that housed the mice. The exposure required approximately 50 minutes, during which time the mice were allowed to move freely about the cage.
Treatment of lung metastasis by aerosolized vector administration was also tested. […] Subsequent aerosol administration of adenovectors will contain protamine and hydrocortisone in the vector solution.

[7] = system: MDA-MB-231, MDA-MB-468, MDA-MB-453 and MCF7 cells; assay: Cell viability after recombinant TRAIL protein; type: cell-based, human
Protocol: Cell Lines and Reagents. Human breast cancer cell lines MCF7, MDA-MB-231, MDA-MB-453, and MDA-MB-468 were grown in RPMI 1640 medium supplemented with 10% heat-inactivated fetal bovine serum, and antibiotics, and glutamine. Immortalized nontransformed breast epithelial cell lines MCF10A and MCF10F and normal human mammary epithelial cells (NHMEC) were purchased from Clonetics (San Diego, Calif.). Primary normal human mammary epithelial cells (PNHMEC) isolated from normal breast tissue (Stampfer and Yaswen, 1994) were provided by Dr. Yinhua Yu (The University of Texas M. D. Anderson Cancer Center). Doxorubicin-resistant MDA-MB-231 cells were obtained through the stepwise exposure of the parental cells to doxorubicin. In brief, the parental MDA-MB-231 cells were treated with doxorubicin (Ben Venue Labs, Inc., Bedford, Ohio) at concentration of 2 μM (1.16 μg/ml, which is the IC80 of MDA-MB-231 cells). Most cells were killed after day 4 of treatment. The residual surviving cells were then allowed to grow in fresh medium. When these residual cells reached 70-80% confluence in the plate, they were treated again with the same concentration of doxorubicin. […]
To test whether these cells were similarly sensitive to soluble TRAIL protein, cells were treated with recombinant TRAIL protein at various concentrations up to 800 ng/ml. Cell viability was then determined at 24, 48, and 96 h after treatment. […]

[8] = Homo sapiens, MDA-MB-231, read-out: IC50

Molecule	IC50 [2] [nM]	IC50 ([3]; Homo sapiens, MDA-MB-231) [nM]	sensitization of DLD1/TRAIL-R to Ad/gTRAIL (cell viability) [4]	also measured
CC(=O)O[C@H]1C(=O)[C@@]2(C)[C@H]([C@H](OC(=O)c3ccccc3)[C@]3(O)C[C@H](OC(=O)[C@H](O)[C@@H](NC(=O)c4ccccc4)c4ccccc4)C(C)=C1C3(C)C)[C@]1(OC(C)=O)CO[C@@H]1C[C@@H]2O [Paclitexol, paclitaxel]	16.9	3.46		numbers of tumor nodules in the lung [1]: dramatically reduced the numbers of tumor nodules
O=c1[nH]c(=O)n([C@H]2C[C@H](O)[C@@H](CO)O2)cc1F [Floxuridine, floxuridine]	4700	100	can be sensitized to Ad/gTRAIL	
CCC1=C[C@@H]2CN(C1)Cc1c([nH]c3ccccc13)[C@@](C(=O)OC)(c1cc3c(cc1OC)N(C)[C@H]1[C@@](O)(C(=O)OC)[C@H](OC(C)=O)[C@]4(CC)C=CCN5CC[C@]31[C@@H]54)C2 [Vinorelbine, vinorelbine]	22.9			IC50 [3, 8]: 2.4 nM
Nc1ccn([C@@H]2O[C@H](CO)[C@@H](O)C2(F)F)c(=O)n1 [Gemcitabine, gemcitabine]	37			IC50 [3, 8]: 18.6 nM
CO[C@@]12[C@H](COC(N)=O)C3=C(C(=O)C(C)=C(N)C3=O)N1C[C@@H]1N[C@@H]12 [mutamycin]			can sensitize DLD1/TRAIL-R to Ad/gTRAIL at certain concentrations	
CN(C)[C@@H]1C(O)=C(C(N)=O)C(=O)[C@@]2(O)C(O)=C3C(=O)c4c(O)cccc4[C@@](C)(O)[C@H]3C[C@@H]12 [Tc, tetracycline]				concentration that started to inhibit GFP-Bax expression [5]: 1 ng/mL
protamine				reporter gene LacZ expression in lung [6]: dramatically increased
O=c1[nH]cc(F)c(=O)[nH]1 [fluorouracil]			can sensitize DLD1/TRAIL-R to Ad/gTRAIL at certain concentrations	
CCc1c2c(nc3ccc(OC(=O)N4CCC(N5CCCCC5)CC4)cc13)-c1cc3c(c(=O)n1C2)COC(=O)[C@]3(O)CC [Irinotecan, irinotecan]	5940	1540		
C[C@]12CCC(=O)C=C1CC[C@@H]1[C@@H]2[C@@H](O)C[C@@]2(C)[C@H]1CC[C@]2(O)C(=O)CO [hydrocortisone]				reporter gene LacZ expression in lung [6]: dramatically increased
COc1cccc2c1C(=O)c1c(O)c3c(c(O)c1C2=O)C[C@@](O)(C(=O)CO)C[C@@H]3O[C@H]1C[C@H](N)[C@H](O)[C@H](C)O1 [Doxorubicin, doxorubicin]	97600	1140	can sensitize DLD1/TRAIL-R to Ad/gTRAIL at certain concentrations	susceptibility to doxorubicin ([2]; 16 μM): resistant; IC80 ([3]; Homo sapiens, MDA-MB-231): 2000 nM; susceptibility to doxorubicin ([3]; parental MDA-MB-231, 2 μM): susceptible
B1				sensitivity to TRAIL protein (cell viability) ([7]; MDA-MB-231 and MDA-MB-468, up to 800 ng/ml, 24, 48, 96 h): sensitive; sensitivity to TRAIL protein (cell viability) ([7]; MDA-MB-453 and MCF7, 800 ng/ml): resistant
